Results on two compounds are retold here after patent US5948791A, “Quinoline derivatives for treating malaria” (Hoffmann-La Roche Inc., priority 1995, dated 1999).

SMILES strings stand for the structures. Like-named read-outs stand apart in the source and are kept apart here.

For orientation: IC50 means the concentration that gives 50% inhibition.

The subject of one experiment is Plasmodium falciparum K1. Description: Growth inhibition of Plasmodium falciparum K1 (chloroquine-resistant) in vitro, [G-3H]-hypoxanthin incorporation. The following applies: for IC50: Plasmodium falciparum, K1, 72 h, read-out: IC50 for P. falciparum K1; for Resistance index: ratio of the IC50 for K1 and the IC50 for NF54. The experiment is classed as cell-based, Plasmodium falciparum (strain K1). The gist of the method: (§1)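 Asynchronous intraerythrocytic cultures in human A+ erythrocytes (0.7% parasitemia, 2.5% suspension) in RPMI 1640 with HEPES, NaHCO3 and human serum, exposed to compound titrated over 6-7 steps for 72 h at 37° C, 3% O2. Growth by [G-3H]-hypoxanthin incorporation against untreated controls; IC50 by logit regression.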

Another experiment has as its system Plasmodium berghei. Description: animal or person. The experiment is classed as in vivo, Plasmodium berghei (strain ANKA) in mice. The following applies: Plasmodium berghei, mice, blood smears 48 h after treatment. The gist of the method:
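Male albino mice (~25 g) infected i.v. on D0 with P. berghei ANKA (0.2 ml of 10^8 parasitized erythrocytes/ml); single s.c. and p.o. dose 24 h post-infection, 10 mg/kg screen then titration.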

Experiment [1] relates to Plasmodium falciparum strain NF54. Description: Growth inhibition of Plasmodium falciparum NF54 (chloroquine-sensitive) in vitro, [G-3H]-hypoxanthin incorporation. The note with it: chloroquine-sensitive strain NF54, 72 h, read-out: IC50 for P. falciparum NF54. The experiment is classed as cell-based. A digest of the protocol:
as §1

[2] abbreviates: po, single peroral dose of 10 mg/kg, read-out: Growth inhibition in % after po administration (GI%, percentage reduction of the parasitemia).
The mark [3] stands for this setting: sc, single subcutaneous dose of 10 mg/kg, read-out: Growth inhibition in % after sc administration (GI%, percentage reduction of the parasitemia).

Regarding `CN(C)c1ccc(CN[C@H]2CC[C@H](Nc3ccnc4cc(Cl)ccc34)CC2)cc1.Cl.Cl.Cl` [Example 113, trans-N1-(7-Chloro-quinolin-4-yl)-N4-(4-dimethylamino-benzyl)-cyclohexane-1,4-diamine trihydrochloride], the values for the IC50 (in the experiment with Plasmodium falciparum K1; in experiment [1]) were 7.6 ng/mL and 3 ng/mL, respectively. The Resistance index in the experiment on Plasmodium falciparum K1 worked out at 2.5. In addition, the results for the inhibition in vivo at 10 mg/kg in the experiment with Plasmodium berghei (setting [2]) and in the experiment with Plasmodium berghei (setting [3]) were 99.7% and 99.9%, respectively.

In the case of `Cl.Cl.Fc1cccc(F)c1CN[C@H]1CC[C@H](Nc2ccnc3cc(Cl)ccc23)CC1` [Example 114, trans-N1-(7-Chloro-quinolin-4-yl)-N4-(2,6-difluoro-benzyl)-cyclohexane-1,4-diamine dihydrochloride], the IC50 with Plasmodium falciparum K1 was 8.4 ng/mL; in experiment [1], 2.9 ng/mL. In the experiment on Plasmodium falciparum K1, the Resistance index is 2.9. For the same compound, the inhibition in vivo at 10 mg/kg in the experiment on Plasmodium berghei (setting [2]) worked out at 99%; in the experiment on Plasmodium berghei (setting [3]) it was 99.9%.
